Results reported in publication PMC6838683, “Discovery of Human Signaling Systems: Pairing Peptides to G Protein-Coupled Receptors” (Cell, 2019).
Where two headings read alike, the source gives them in different places. Positions of bridges follow the written chain, without caps; N, C: chain ends. No end group written: not given here.

Key:
GPR139 = molecular target: T1, GPR139 (Homo sapiens, UniProt Q6DWJ6); test: Repeat of proposed literature pairing (mass redistribution and/or internalization); assay type: cell-based
T1 construct: hIL-2Ra signal peptide (N); expressed in transfected cells
T1 sequence (Q6DWJ6 2-353 limits assumed): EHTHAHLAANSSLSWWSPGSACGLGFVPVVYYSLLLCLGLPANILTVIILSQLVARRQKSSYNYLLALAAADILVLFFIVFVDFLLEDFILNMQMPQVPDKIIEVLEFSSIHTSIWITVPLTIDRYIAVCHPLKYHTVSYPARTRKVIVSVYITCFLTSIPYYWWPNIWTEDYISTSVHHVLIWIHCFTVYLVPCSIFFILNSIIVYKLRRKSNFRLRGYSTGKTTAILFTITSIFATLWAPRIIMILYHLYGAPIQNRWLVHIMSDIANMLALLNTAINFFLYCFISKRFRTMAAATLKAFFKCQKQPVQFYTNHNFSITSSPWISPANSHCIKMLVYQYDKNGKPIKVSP
Text: (§1) DMR assays provide a single integrated readout of ligand-dependent cellular response, utilizing an optical biosensor in specialized microplates to detect wavelength shifts of reflected light as it passes through the biosensor and the lower portion of the cell (∼150-200 nm). As a signal pathway agnostic approach, DMR assays are well-suited to the study of GPCRs ([Fang et al., 2008], [Schröder et al., 2011]). The mass redistribution response (Δ picometer (pm)) likely reflects a number of intracellular events, including cytoskeletal rearrangement, protein trafficking and receptor internalization. Orphan receptor-expressing cells were gently washed twice with assay buffer (HBSS with 1 mM CaCl2, 1 mM MgCl2, 20 mM HEPES, 0.01% pluronic F-68, pH 7.4) containing 0.1% DMSO and cells were equilibrated for 90 min at 22°C in the EPIC Benchtop (BT) System (Corning) to establish a stable DMR signal. After 3-5 min baseline recordings, peptides (10 μM) were added in duplicate wells using an electronic 384-channel Viaflo pipette (Integra Biosciences, Switzerland) and DMR responses were measured for 60 min at 22°C. 100 nM norepinephrine was included as an internal assay control to assess the cellular DMR response via endogenously-expressed adrenoceptors in the TREx 293 cells. Real-time data were processed using the BT to column converter MS-Excel macro (Corning) and analyzed in GraphPad Prism 7.0. DMR recordings in peptide screening experiments were buffer and solvent corrected and the area under the curve (AUC) was quantified. For subsequent validation experiments, peptides were diluted in assay buffer containing 0.1% DMSO and DMR assays were performed as above. […] Data represent mean ± standard error of the mean (SEM) from at least 3 biologically independent experiments.
A TR-FRET real-time internalization assay was used to examine peptide-dependent changes in orphan receptor localization as described previously ([Foster and Bräuner-Osborne, 2018]). Surface-expressed SNAP-tagged receptors were labeled with a cell-impermeable luminescent terbium cryptate (100 nM SNAP Lumi4-Tb; Cisbio, France) for 1 hr at 37°C. Cells were washed to remove excess terbium and incubated with fluorescein-O-acetic acid (100 μM; Sigma Aldrich) for 5 min at 37°C. Peptides were added as for DMR assays, and internalization responses were recorded for 60 min at 37°C using an EnVision 2104 Multimode plate reader (PerkinElmer). 100 nM GLP-1 was used as a positive control for SNAP-GLP1R internalization. Real-time internalization responses were calculated based on TR-FRET (excitation 340 nm; emission 520 nm and 615 nm), and were expressed as the ratio between donor (terbium) and acceptor (fluorescein) emission. For peptide screening analysis (both DMR and internalization assays), we calculated the area under the curve from the real-time traces. […] Validation experiments for receptor internalization were performed as above. Internalization data was processed in MS-Excel and area under the curve was used to generate concentration-response curves using GraphPad Prism 7.0. Data represent mean ± standard error of the mean (SEM) from at least 3 biologically independent experiments.

human GPCRs = molecular target: human GPCRs; design: method as in Guide to Pharmacology database; conditions: max reported value, ref Guide to Pharmacology database, cited from earlier work
Text: Supplement mmc1.xlsx, sheet "HumanGPCRLigands" | column: pKi_value; pKd_value; pEC50_value; pIC50_value

NPFF1 = molecular target: T2, NPFF1 (Homo sapiens, UniProt Q9GZQ6); test: β-arrestin recruitment (Tango), known peptide receptors; assay type: cell-based; conditions: mean, n = 3
T2 construct: host or cells: HTLA cells (HEK293-derived)
T2 sequence (Q9GZQ6 whole entry): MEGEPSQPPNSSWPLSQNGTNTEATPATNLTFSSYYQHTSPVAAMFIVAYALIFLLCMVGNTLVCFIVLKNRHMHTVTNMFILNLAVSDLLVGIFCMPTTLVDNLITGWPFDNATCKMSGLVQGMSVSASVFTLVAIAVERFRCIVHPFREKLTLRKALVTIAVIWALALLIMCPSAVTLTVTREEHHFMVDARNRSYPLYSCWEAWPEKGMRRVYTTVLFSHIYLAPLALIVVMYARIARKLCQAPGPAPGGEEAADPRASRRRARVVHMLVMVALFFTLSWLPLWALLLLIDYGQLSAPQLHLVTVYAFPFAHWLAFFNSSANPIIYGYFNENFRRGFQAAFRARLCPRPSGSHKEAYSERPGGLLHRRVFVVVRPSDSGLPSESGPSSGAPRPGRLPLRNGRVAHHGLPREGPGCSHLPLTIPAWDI
Text: Supplement mmc7.xlsx, sheet "Peptide validation data" | column: Emax; pEC50

GPR15 [1] = molecular target: T3, GPR15 (Homo sapiens, UniProt P49685); test: cAMP inhibition (Gi/o), HTRF with forskolin; assay type: cell-based; conditions: receptor GPR15, mean, SEM and n (4); for Emax: read-out: cAMP accumulation assays Emax (% FSK); for EC50: read-out: cAMP accumulation assays pEC50 (converted)
T3 construct: hIL-2Ra signal peptide (N); expressed in transfected cells
T3 sequence (P49685 2-360 limits assumed): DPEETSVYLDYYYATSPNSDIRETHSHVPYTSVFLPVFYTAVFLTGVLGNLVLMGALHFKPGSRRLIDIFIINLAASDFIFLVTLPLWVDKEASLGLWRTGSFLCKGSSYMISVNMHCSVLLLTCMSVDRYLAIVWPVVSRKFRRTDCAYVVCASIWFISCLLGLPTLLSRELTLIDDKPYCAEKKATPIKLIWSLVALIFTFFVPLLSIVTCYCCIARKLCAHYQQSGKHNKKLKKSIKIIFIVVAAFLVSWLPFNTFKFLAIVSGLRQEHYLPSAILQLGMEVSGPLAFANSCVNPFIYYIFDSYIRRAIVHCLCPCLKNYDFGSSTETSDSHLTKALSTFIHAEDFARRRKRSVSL
Method: Peptide-dependent second messenger responses were measured using commercially available HTRF-based IP1 and cAMP kits (Cisbio) as described previously ([Nørskov-Lauritsen et al., 2014]). Receptor expression was induced for 48 hr with 0.1 μg/ml doxycycline in 10 cm dishes. For IP1 measurements (to measure Gq/11), 2,500 cells/well were mixed with ligands in triplicate wells in low volume white 384-well plates at 37°C for 30 min. For cAMP assays, 2,500 cells/well were added in triplicate wells in white 384-well plates in the absence or presence of 3 μM forskolin (to measure Gs and Gi/o activation respectively). 100 μM IBMX was included to prevent cAMP degradation during 30 min stimulation on a plate shaker at room temperature. For both assays, HTRF was measured using an EnVision 2104 Multimode plate reader (PerkinElmer).

GPR15 [2] = molecular target: T3, GPR15; test: Dynamic mass redistribution (DMR), concentration-response; assay type: cell-based; conditions: receptor GPR15, mean; for DMR assays Emax (peak or AUC): SEM and n (2-3); for EC50: SEM and n (3), read-out: DMR assays pEC50 (converted)
Method: (§2) 48 hr prior to parallel assaying, SNAP-tagged oGPCR cells were plated (10,000 cells/well) in fibronectin-coated 384-well Epic biosensor microplates (Corning) and poly-D-lysine coated white 384-well plates (for internalization assays). SNAP- GLP-1 receptor was plated alongside orphan receptor cells as an internal assay control for internalization assays. Receptor-expression was induced with 0.1 μg/ml doxycycline.
as §1

GPR15 [3] = molecular target: T3, GPR15; test: Real-time receptor internalization (TR-FRET), concentration-response; assay type: cell-based; conditions: mean, SEM and n (3); for EC50: read-out: Internalization assays pEC50 (converted)
Method: as §2
(§3) A TR-FRET real-time internalization assay was used to examine peptide-dependent changes in orphan receptor localization as described previously ([Foster and Bräuner-Osborne, 2018]). Surface-expressed SNAP-tagged receptors were labeled with a cell-impermeable luminescent terbium cryptate (100 nM SNAP Lumi4-Tb; Cisbio, France) for 1 hr at 37°C. Cells were washed to remove excess terbium and incubated with fluorescein-O-acetic acid (100 μM; Sigma Aldrich) for 5 min at 37°C. Peptides were added as for DMR assays, and internalization responses were recorded for 60 min at 37°C using an EnVision 2104 Multimode plate reader (PerkinElmer). 100 nM GLP-1 was used as a positive control for SNAP-GLP1R internalization. Real-time internalization responses were calculated based on TR-FRET (excitation 340 nm; emission 520 nm and 615 nm), and were expressed as the ratio between donor (terbium) and acceptor (fluorescein) emission. For peptide screening analysis (both DMR and internalization assays), we calculated the area under the curve from the real-time traces. As the magnitude of the responses was variable between orphan receptor targets, particularly for the SNAP-tag based internalization assay where the signal is dependent on receptor surface expression, the AUC values were normalized to their respective plate averages and expressed as fold change. Validation experiments for receptor internalization were performed as above. Internalization data was processed in MS-Excel and area under the curve was used to generate concentration-response curves using GraphPad Prism 7.0. Data represent mean ± standard error of the mean (SEM) from at least 3 biologically independent experiments.

MAS1 = molecular target: T4, MAS1 (Homo sapiens, UniProt P04201); test: β-arrestin recruitment (Tango), indicative pairing; assay type: cell-based; conditions: mean, n = 3
T4 construct: host or cells: HTLA cells (HEK293-derived)
T4 sequence (P04201 1-325): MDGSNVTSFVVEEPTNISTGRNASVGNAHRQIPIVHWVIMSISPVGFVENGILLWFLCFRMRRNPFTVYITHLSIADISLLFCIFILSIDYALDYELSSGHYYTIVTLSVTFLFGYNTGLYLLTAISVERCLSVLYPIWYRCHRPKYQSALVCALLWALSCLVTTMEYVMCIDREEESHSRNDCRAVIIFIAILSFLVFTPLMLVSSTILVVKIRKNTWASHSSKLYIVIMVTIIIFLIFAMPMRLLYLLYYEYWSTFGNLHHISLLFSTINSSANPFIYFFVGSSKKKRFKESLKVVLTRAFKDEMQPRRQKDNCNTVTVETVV
Method: The peptide library was additionally screened against 120 GPCR targets in parallel, including all available orphan receptors and 27 known class A peptide receptors using the Tango assay platform ([Kroeze et al., 2015]). Briefly, HTLA cells (a HEK293 cell line stably expressing a tTA-dependent luciferase reporter and a β-arrestin2-TEV fusion gene) were plated 10,000 cells/well in poly-L-lysine–coated clear-bottom white 384-well plates in DMEM supplemented with 10% FBS, 100 U/ml penicillin and 100 μg/ml streptomycin, 2 μg/ml puromycin and 100 μg/ml hygromycin B. 24 hr later, cells were transfected with Tango GPCR constructs using the calcium phosphate method ([Jordan et al., 1996]). The next day, culture medium was changed to DMEM + 1% dFBS and 10 μM peptides were added for overnight stimulation. Bright-Glo solution (Promega) was incubated for 15–20 min at room temperature, and luminescence was counted using a Trilux luminescence counter (Wallac).
For subsequent peptide validation experiments using Tango assays, HTLA cells were transiently transfected in 10 cm dishes with the receptor of interest using polyethylenimine (PEI) ([Longo et al., 2013]). After 24 hr, 25,000 cells/well were plated in clear bottom, white-walled 384-well plates. Assays were performed as described above, with luminescence measured using an EnSpire 2300 Multimode plate reader (PerkinElmer). Luminescence counts were exported into Excel and were analyzed using GraphPad Prism 7.

GPR37 = test: Repeat of proposed literature pairing (mass redistribution and/or internalization); assay type: cell-based, human; conditions: repeat of literature pairing; Figure S7A, Tables S5 and S7
Text: as §1, §3

## ACTH (SYSMEHFRWGKPVGKKRRPVKVYPNGAEDESAEAFPLEF; Corticotropin; UniProt P01189 138-176, looked up) [melanocortin receptor ligand, reference compound]
GPR139; repeat of literature pairing
  Peptide pairing for orphan receptor GPR139 (confirmed/unconfirmed): Confirmed peptide pairings for orphans
GPR139; repeat of literature pairing across multiple assays, Figure S7A, Tables S5 and S7
  receptor-dependent activation by proposed ligand, GPR139: selective receptor-dependent activation
Human GPCRs; receptor mc3r_human (MC3R, P41968)
  pKi_value: 7.1
Human GPCRs; receptor mc4r_human (MC4R, P32245)
  pKi_value: 6.2
Human GPCRs; receptor mc5r_human (MC5R, P33032)
  pKi_value: 5
Human GPCRs; receptor mshr_human (MC1R, Q01726)
  pKi_value: 8.6

## ARANMEAGTMSHFPSLPQRF [Peptide 135]
NPFF1
  Emax, Tango (fold over basal): 22.0 fold over basal
  pEC50, Tango (fold over basal): 6.22

## KRRPAKAWS [Peptide 64.1]
GPR15 [1]
  cAMP accumulation assays Emax (% FSK): 98.3 % FSK
GPR15 [2]
  DMR assays Emax (peak or AUC): 107
GPR15 [3]
  Internalization assays Emax (AUC): 3.1

## KRRPAKAWSGRRTRLCCHRVPSPNSTNLKGHHVRLCKPCKLEPEPRLWVVPGALPQV (disulfide 16-39, 17-36) [64.4 (Phoenix)]
GPR15 [1]
  Emax: 41%
  EC50: 1.26 nM
GPR15 [2]
  EC50: 324 nM
GPR15 [3]
  EC50: 89.1 nM

## LWVVPGALPQV [64 original]
GPR15 [1]
  cAMP accumulation assays Emax (% FSK): 29.2 % FSK
GPR15 [2]
  DMR assays Emax (peak or AUC): 197
GPR15 [3]
  Internalization assays Emax (AUC): 45.8

## NAWGPWSKEQLSPQAREFWSLAAPQRF [Peptide 166]
MAS1
  Emax, Tango (fold over basal): 1.2 fold over basal
  pEC50, Tango (fold over basal): 7.14
NPFF1
  Emax, Tango (fold over basal): 26.7 fold over basal
  pEC50, Tango (fold over basal): 4.75

## RPYLTQGNEIFPD [Peptide 90]
NPFF1
  Emax, Tango (fold over basal): 9.6 fold over basal
  pEC50, Tango (fold over basal): 4.27

## TRLCCHRVPSPNSTNLKGHHVRLCKPCKLEPE (also: bicyclic or more (positions not given here)) [Peptide 64.2]
GPR15 [1]
  cAMP accumulation assays Emax (% FSK): 92.5 % FSK
GPR15 [2]
  DMR assays Emax (peak or AUC): 81
GPR15 [3]
  Internalization assays Emax (AUC): 4.3

## TRLCCHRVPSPNSTNLKGHHVRLCKPCKLEPEPRLWVVPGALPQV (disulfide 4-27, 5-24) [64.3 (Phoenix)]
GPR15 [1]
  Emax: 40.8%
  EC50: 25.7 nM
GPR15 [2]
  EC50: 13.2 nM
GPR15 [3]
  EC50: 447 nM

## head activator
GPR37
  receptor-dependent activation by proposed ligand, GPR37: no activity
